In ChEMBL document CHEMBL1133037, “The design, synthesis and physical chemical properties of novel human vasopressin V2-receptor antagonists optimized for parenteral delivery” (Bioorg Med Chem Lett, 2000) one finds Ratio, solubility and IC50 data, which are given here for 14 compounds.

Each structure is given as a SMILES string. Values after ≈ are worked out from the molar mass of the structure shown. Active and inactive are the calls of the source. No cut-off for these calls is given here.

What is called IC50 is the concentration that gives 50% inhibition. Read a low IC50 as inhibition by little substance.

The test system of series [1] is Rattus norvegicus. The experiment in a line: Ratio of rat urine volume collected from treatment group (10 mg/kg perorally) after 4 hours versus control group was determined. The format is functional.
Series [2] is described as follows: Compound was tested for solubility in a model parenteral system consisting of 30% poltethylene glycol 200 (PEG-200)/water (*, mixture of amophorus and crystalline material). The format is ADME. The note with it: read-out: S.
Series [3] addresses Vasopressin V2 receptor (Homo sapiens, UniProt P30518). The series can be described thus: Displacement of [3H]AVP from human vasopressin V2-receptor expressed in murine fibroblast cell (LV2) membranes. The format is cell-based. A general note: Loss of bound radioactivity is the signal in a displacement assay; it reports binding, not function.
The nature of series [4]: Compound was tested for solubility in a model parenteral system consisting of 30% poltethylene glycol 200 (PEG-200)/water. The format is ADME. The note with it: read-out: S.
Series [5] relates to Rattus norvegicus. The experiment in a line: Ratio of rat urine volume collected from treatment group (3 mg/kg perorally) after 4 hours versus control group was determined. The series is classed as functional.
The test system of series [6] is Rattus norvegicus. The series can be described thus: Ratio of rat urine volume collected from treatment group (1 mg/kg perorally) after 4 hours versus control group was determined. The series is classed as functional.
Series [7] concerns Rattus norvegicus. The experiment in a line: Ratio of urine volume collected from treatment group (10 mg/kg perorally) after 4 hours versus control group was determined; No effect. The format is functional, organism-based.

Chain of Vasopressin V2 receptor (P30518 whole entry): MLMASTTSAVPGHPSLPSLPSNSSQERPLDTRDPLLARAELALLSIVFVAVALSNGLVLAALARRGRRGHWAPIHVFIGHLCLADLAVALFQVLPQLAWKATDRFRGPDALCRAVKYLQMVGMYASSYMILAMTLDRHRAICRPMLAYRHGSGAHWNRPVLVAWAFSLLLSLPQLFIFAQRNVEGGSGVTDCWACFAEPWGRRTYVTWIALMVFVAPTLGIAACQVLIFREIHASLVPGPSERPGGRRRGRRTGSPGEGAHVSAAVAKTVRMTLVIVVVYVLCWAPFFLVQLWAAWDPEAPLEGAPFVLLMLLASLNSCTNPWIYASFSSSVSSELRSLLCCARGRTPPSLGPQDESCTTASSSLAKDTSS

In the case of `Cc1ccc(F)cc1C(=O)Nc1ccc(C(=O)N2Cc3cccn3Cc3ccccc32)c(Cl)c1` [LIXIVAPTAN], the Ratio in series [1] is listed as 7.4.
For the compound `CN(C)Cc1ccc2n1Cc1ccccc1N(C(=O)c1ccc(NC(=O)c3ccccc3-c3ccccc3)cc1O)C2`, the solubility in series [2] came to 1900 µg/mL (≈ 3410 µM). For the same compound, the Ratio in series [1] is 3.8. In series [3], this compound yielded a concentration for half-maximal inhibition (IC50) of 14.8 nM.
Regarding `CN1CCN(Cc2ccc3n2Cc2ccccc2N(C(=O)c2ccc(NC(=O)c4ccccc4-c4ccccc4)cc2Cl)C3)CC1`, the Ratio in series [1] is on record as 3.75. The compound further returned an IC50 in series [3] of 1.3 nM.
Turning to `CN1CCN(C(=O)c2ccc3n2Cc2ccccc2N(C(=O)c2ccc(NC(=O)c4ccccc4-c4ccccc4)cc2Cl)C3)CC1.O=C(O)CC(O)(CC(=O)O)C(=O)O`, in series [4], the solubility turned out to be 1700 µg/mL.
For `CN1CCN(C2CCN(C(=O)c3ccc4n3Cc3ccccc3N(C(=O)c3ccc(NC(=O)c5ccccc5-c5ccccc5)cc3Cl)C4)CC2)CC1.Cl`, the Ratio in series [1] is listed as 2.7.
In the case of `CN(C)C1CCN(Cc2ccc3n2Cc2ccccc2N(C(=O)c2ccc(NC(=O)c4ccccc4-c4ccccc4)cc2Cl)C3)CC1`, the Ratio in series [1] is 2.3. For the same compound, the IC50 in series [3] was 2 nM.
Taken in the same sequence, the figures for `CN(C)CCN(C)Cc1ccc2n1Cc1ccccc1N(C(=O)c1ccc(NC(=O)c3ccccc3-c3ccccc3)cc1Cl)C2` were 4.2 and 2.6 nM.
Take `CN(C)Cc1ccc2n1Cc1ccccc1N(C(=O)c1ccc(NC(=O)c3ccccc3-c3ccccc3)cc1Cl)C2`: the solubility in series [2] stood at 720 µg/mL (≈ 1250 µM). The results for the Ratio in series [5], in series [6] and in series [1] were 5.6, 2.3 and 6.6, respectively. The compound further showed an IC50 in series [3] of 7.5 nM.
For `O=C(Nc1ccc(C(=O)N2Cc3ccc(CN4CCC(N5CCCCC5)CC4)n3Cc3ccccc32)c(Cl)c1)c1ccccc1-c1ccccc1`, the Ratio in series [1] was 1.5. This compound also registered a half-inhibitory concentration (IC50) in series [3] of 2.1 nM.
As for `Cc1ccc(F)cc1C(=O)Nc1ccc(C(=O)N2Cc3ccc(CN(C)C)n3Cc3ccccc32)c(Cl)c1`, the Ratio in series [5] and in series [6] was 1.4 each time.
As to `Cc1ccc(F)cc1C(=O)Nc1ccc(C(=O)N2Cc3ccc(C(=O)O)n3Cc3ccccc32)c(Cl)c1`, the Ratio result in series [7] is “inactive”.
With `COc1cc(C(=O)N2Cc3ccc(CN(C)C)n3Cc3ccccc32)ccc1NC(=O)c1ccccc1-c1ccccc1`, the solubility in series [4] is 2200 µg/mL (≈ 3850 µM). Further, in series [1], the Ratio was determined as 5. The IC50 in series [3] was determined as 5.2 nM.
Taken in the same sequence, the figures for `COc1cc(NC(=O)c2ccccc2-c2ccccc2)ccc1C(=O)N1Cc2ccc(CN3CCN(C)CC3)n2Cc2ccccc21` were 300 µg/mL (≈ 479 µM), 7.8 and 7 nM.
On to `CN(C)C1CCN(C(=O)c2ccc3n2Cc2ccccc2N(C(=O)c2ccc(NC(=O)c4ccccc4-c4ccccc4)cc2Cl)C3)CC1`, for which the IC50 in series [3] was 8.8 nM.
